The record followed here is patent publication US7166762B2, “Method of constructing heart failure model animal” (Takeda Pharmaceutical Company Limited, priority 2000, dated 2007).

This assay deals with β-receptor. The experiment in a line: Reactivity for dobutamine (β-receptor response, LVdp/dtmax) in anesthetized rats 1 week after the operation. Format: in vivo, rat. To be noted: i.v.; for reactivity of the β-receptor: difference in LVdp/dtmax between before and after administration (Δ): male JCL-Wistar rat, mean ± standard error. Here is the method:
A male JCL-Wistar rat (13 to 15 week-old) was anesthetized with pentobarbital (50 mg/kg, i.p.) and subjected to thoracotomy at the midline under artificial respiration. The pericardium was dissected to expose the heart, and the proximal portion of the ascending aorta was dissected. A thread was put through the proximal portion of the left coronary artery along with the cardiac muscle, with a needled suture, and the thread was ligated to occlude the coronary artery. Immediately after the occlusion of the coronary artery (within 5 minutes), a polyethylene tube having a length of 3 mm (outer diameter: 2.80 mm; inner diameter: 1.77 mm) was installed on the proximal portion of the ascending aorta to conduct stenosis of 40 to 50%. After that, close-chest operation was conducted, and the rat was returned to a breeding cage after spontaneous respiration had been confirmed, and bred for 1 week by a general procedure. The rats in which the recovery of spontaneous respiration had not been confirmed were excluded from the following analysis. After 1 week of the operation, to measure the hemodynamics, the rat was anesthetized with pentobarbital (40 mg/kg, i.p.). A tracheal cannula was inserted, then a mirror catheter having a pressure sensor (2F) was inserted from the right carotid artery to the left ventricle. The waveform of the left ventricular pressure was analyzed with a differential amplifier, and the maximum differential value (LVdp/dtmax) and the minimum differential value (LVdp/dtmin) were recorded.
On the other hand, in order to measure the blood pressure and to administrate a drug, a polyethylene tube was inserted to the left femoral artery and left femoral vein, respectively, and the heart rate carculated from the blood pressure pulse and the dipolar lead (II) electrocardiogram were recorded.
Dobutamime was dissolved in a solution of saline containing 0.01% of ascorbic acid, and the solution was administrated in a dose of 0.3 to 10 μg/kg i.v. to investigate the β-receptor response.
The basal hemodynamics after 1 week of the operation was represented by the value before the administration of dobutamime, and the reactivity of the β-receptor was represented by the difference between before and after the administration of dobutamime (Δ mmHg/sec) by the mean value±standard error.

As for `CC(CCc1ccc(O)cc1)NCCc1ccc(O)c(O)c1` (stereo not drawn) [Dobutamine], the “reactivity of the β-receptor: difference in LVdp/dtmax between before and after administration (Δ)” value is given as 278 ± 144 mmHg/sec (0.3 μg/kg, group with coronary stenosis and stenosis of the proximal portion of the aorta); 2287 ± 8 mmHg/sec (0.3 μg/kg, sham-operated group); 832 ± 501 mmHg/sec (1.0 μg/kg, group with coronary stenosis and stenosis of the proximal portion of the aorta); 4127 ± 112 mmHg/sec (1.0 μg/kg, sham-operated group); 1641 ± 794 mmHg/sec (3.0 μg/kg, group with coronary stenosis and stenosis of the proximal portion of the aorta); 7135 ± 753 mmHg/sec (3.0 μg/kg, sham-operated group). The “reactivity of the β-receptor: difference in LVdp/dtmax between before and after administration (Δ)” value is, setting by setting: (10 μg/kg, group with coronary stenosis and stenosis of the proximal portion of the aorta) 2431 ± 1028 mmHg/sec; (10 μg/kg, sham-operated group) 7654 ± 999 mmHg/sec. For the same molecule, the “maximum reaction of LVdp/dtmax in the stenosis group as compared with the sham-operated group” value (all doses 0.3, 1.0, 3.0, 10 μg/kg, coronary + proximal aorta stenosis group vs sham-operated group) was “remarkably decreased”.
